# Reference: US12673050B2, “Compositions and their use for the treatment of A1-antitrypsin deficiency” (Centessa Pharmaceuticals (UK) Limited, priority 2021, dated 2026)
# Key:
# human M A1AT = target: T1, human M A1AT (Homo sapiens, UniProt P01009); experiment: A1AT cell secretion assay using HEK-M cells (ELISA); type: cell-based; conditions: 10 μM, 48 h
# T1 construct: expressed in transfected cells; host or cells: HEK-M cells (HEK-EBNA with M A1AT plasmid)
# Experimental: (§1) HEK-M cells, a human embryonic kidney cell line stably transfected with M A1AT, were plated into 96 well plates (3.0×10^5 cells/ml with 200 μl of media/well) overnight at 37° C. in a humidified atmosphere containing 5% CO2. Following incubation cells were washed with 200 μl serum-free media three times and media was replaced with serum-free media containing either vehicle, 10 μM suberanilohydroxamic acid (SAHA), (S)-1-((2-(trifluoromethyl)phenyl)sulfonyl)piperidine-3-carboxylic acid (at 10 μM) or (R)-1-((2-(trifluoromethyl)phenyl)sulfonyl)piperidine-3-carboxylic acid (at 10 μM) in replicates of six for 48 h in a 37° C. incubator in a final volume of 200 μl. At the end of the incubation step the supernatants were removed from the wells, centrifuged at 1000×g at 4° C. for 10 min and were assayed for human A1AT levels by ELISA (Human Serpin A1/α1 antitrypsin duo set ELISA, R& D Systems, DY1268) per manufacturer's instructions.
# (§2) Briefly, a 96 well plate was coated with human A1AT capture antibody overnight at room temperature (1:180 dilution from stock, 100 μl final volume/well). The capture antibody was then removed and wells washed three times with 300 μl wash buffer (0.05% Tween in PBS) and then 200 μl reagent diluent (25% Tween 20 in PBS) was incubated in each well for 1 h at room temperature. Diluted samples, standards (125, 250, 500, 1000, 2000, 4000 and 8000 pg/ml A1AT) or blanks were then added to each well in duplicate and the plates were covered with a plate sealer and left at room temperature for 2 h. […] After which, 50 μl stop solution (2M H2SO4) was added and optical density (OD) of each well was read at 450 nm with 570 nm blank subtracted from each well using a microplate reader. A 4 parameter logistic curve was constructed using GraphPad Prism 7 and A1AT concentrations were determined in each sample by interpolation from a standard curve and multiplying by the appropriate dilution factor.
# (§3) The amount of human A1AT secreted from transfected HEK-EBNA cells into the media was measured by ELISA. […]
# human Siiyama A1AT = target: T2, human Siiyama A1AT (Homo sapiens, UniProt P01009, S77F); experiment: A1AT cell secretion assay using HEK-Siiyama cells (ELISA); type: cell-based; conditions: 10 μM, 48 h
# T2 construct: expressed in transfected cells; host or cells: HEK-Siiyama cells (HEK-EBNA with Siiyama A1AT plasmid)
# Experimental: as §1, with “HEK-Siiyama” for “HEK-M”, “the Siiyama A1AT gene,” for “M A1AT,”, “containing” for “containing either”, “(at 1 or” for “(at”, “eight” for “six”, “A1/α1-antitrypsin” for “A1/α1 antitrypsin”
# as §2, with “(0.05% Tween 20 in PBS)” for “(0.05% Tween in PBS)”
# as §3
# T2 sequence (P01009 25-418 S77F): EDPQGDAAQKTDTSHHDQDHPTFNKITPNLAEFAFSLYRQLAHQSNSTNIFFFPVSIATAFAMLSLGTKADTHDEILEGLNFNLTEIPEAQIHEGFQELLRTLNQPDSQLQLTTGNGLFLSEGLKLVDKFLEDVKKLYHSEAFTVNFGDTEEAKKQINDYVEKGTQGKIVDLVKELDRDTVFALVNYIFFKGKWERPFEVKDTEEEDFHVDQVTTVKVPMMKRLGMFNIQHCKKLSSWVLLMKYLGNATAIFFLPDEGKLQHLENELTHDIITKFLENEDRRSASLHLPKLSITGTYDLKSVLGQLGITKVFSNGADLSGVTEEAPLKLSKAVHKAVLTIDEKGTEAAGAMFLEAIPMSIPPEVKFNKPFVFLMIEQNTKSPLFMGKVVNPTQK
# T1 sequence (P01009 25-418): as the sequence (P01009 25-418 S77F) above, with F53S counted along it
smiles,measurement,setting,value
"O=C(CCCCCCC(=O)Nc1ccccc1)NO [SAHA, suberanilohydroxamic acid, reference compound]",secretion of human M A1AT into cell supernatant,human M A1AT,stimulates an increase in M A1AT secretion
same,secretion of human Siiyama A1AT into cell supernatant (positive control),human Siiyama A1AT,stimulates an increase in Siiyama A1AT secretion
